Where a SMILES comes first, the peptide text is derived from it.
How the values were obtained:
Pseudomonas aeruginosa [1] = experiment: NPN uptake permeabilization assay; format: cell-based; details: peptide 50 μg/mL; NPN 10 μM; 5 mM HEPES pH 7.2 with 0.1% glucose; 37°C
Method: In addition to this indirect method, we used a direct assay which measures the ability of peptides to promote the entry of a hydrophobic fluorescent probe (1-N-phenylnaphthylamine; NPN) into the cell membrane. This method identifies potent permeabilizers as those causing rapid NPN uptake leading to a high level of fluorescence.
The peptides permeabilizing activity on the bacterial cell envelope was assessed by quantifying the uptake of 1-N-phenylnaphthylamine (NPN). These experiments were performed essentially as described by Loh and collaborators with some modifications. Briefly, bacterial cells were grown in LB broth to mid-logarithmic phase, washed in 5 mM HEPES buffer (N-2-hydroxyethylpiperazine-N'-2-ethanesulfonic acid, pH 7.2) and resuspended at an OD600 of 0.5 in HEPES supplemented with 0.1% glucose. Freshly prepared bacterial suspensions were allowed to stabilize at 37°C for 10 min in quartz cuvettes. NPN was added at a final concentration of 10 μM and fluorescence was measured with a fluorometer (LS-50, Perkin-Elmer, Wellesley, MA, USA) using the time drive recording mode, slit widths of 2.5 nm and excitation and emission wavelengths of 350 nm and 420 nm, respectively. Peptides were added to the cuvette at a final concentration of 50 μg/mL.

[2] = tested on: Pseudomonas aeruginosa 4158-02; experiment: microbe, parasite or virus in culture; details: for FIC index of peptide-novobiocin combination: checkerboard, peptides with MIC >250 μg/mL assigned 500 μg/mL, synergistic if ≤ 0.5; for synergistic activity with novobiocin, in words: subinhibitory peptide concentrations
Method: First, we studied the ability of the peptides to sensitize P. aeruginosa to novobiocin, a hydrophobic antibiotic that cannot reach its intracellular target (gyrase) due to its inability to cross an intact outer membrane. […] Specifically, for a combination to be considered synergistic MIC of each agent when combined have to be at least 4-times lower than that of the corresponding agent alone.
(§1) The ability of the peptides to induce bacterial sensitization to antibiotics was determined by a standard checkerboard titration method in 96-well polystyrene microtiter plates. For this purpose, serial dilutions of the two antimicrobial agents were mixed together in a microtiter plate so that each row contained a fixed amount of peptide and increasing amounts of the antibiotic. Inocula and growth conditions were identical to those described for MIC determination. To assess the synergy between antibiotics and peptides, the Fractional Inhibitory Concentration (FIC) index of each combination was calculated according to the following formula: [(A)/MICA] + [(P)/MICP] = FICA + FICP = FIC index, where MICA and MICP are the MICs of the antibiotic and peptide determined separately, and (A) and (P) are the MICs of the antibiotic and peptide when determined in combination. A given peptide-antibiotic combination was considered as synergistic if its FIC index was ≤ 0.5.

[3] = tested on: P. aeruginosa strain PAO1; details: for final MIC of antibiotic: in the presence of subinhibitory concentrations of peptide P22, strain PAO1
Method: For these experiments we used the wild type P. aeruginosa strain PAO1, whose mechanisms of antibiotic resistance have been extensively studied.
as §1

E. coli ATCC 25922 = experiment: MIC/MBC in polypropylene vs. polystyrene microplates; format: cell-based, Escherichia coli; details: for MIC, polypropylene vs. polystyrene plates: broth microdilution
Method: It has been reported that cationic peptides have affinity for certain plastics (i.e. polystyrene; [20]), and as a consequence some authors disfavor the use of microplates made of such material. To investigate this potential interference, we studied whether the composition of the microplate (polypropylene vs. polystyrene) affected the antibacterial activity of selected peptides differing in length, hydrophobicity and net charge when tested on E. coli ATCC 25922.
The peptides MICs were determined in Mueller-Hinton (MH) medium (Difco Laboratories, Sparks, MD, USA) by the broth microdilution assay following recommendations of the Clinical and Laboratory Standards Institute. Briefly, serial twofold dilutions of the peptides were made in MH broth and dispensed into 96-well U-bottom polystyrene microtiter plates (TPP, Trasadingen, Switzerland). Bacterial cells grown for 18–20 h on agar plates were suspended in saline and the turbidity was adjusted to an O.D600 of 0.04 (1 × 10^7 CFU/mL, approximately). A hundred-fold dilution of this suspension prepared in MH broth was mixed 1:1 with 100 μL of each of the corresponding peptide dilution. Plates were incubated at 37°C without shaking for 18–20 h and the MIC was determined visually. Minimum bactericidal concentration (MBC) was determined by plating aliquots from those wells with no growth onto MH agar plates. MBC was defined as the lowest concentration of the peptide causing a 99.9% loss of viability with respect to the CFU/mL inoculated.
The peptides MICs were also determined using polypropylene labware by the conventional broth microdilution assay as described above. For these experiments, polypropylene 96 well round bottom plates (Greiner; Sigma-Aldrich, USA) were used. Both this and all the previous antimicrobial susceptibility assays were performed at least in duplicate.

Pseudomonas aeruginosa [4] = experiment: Bactericidal activity on resting bacteria in phosphate buffer with or without Ca2+/Mg2+; format: cell-based; details: 20 mM phosphate pH 7.0 (PB vs PB-CM), 18 hours, viable counts
Method: (§2) All peptides were first screened for bactericidal activity under low ionic strength conditions on resting bacteria. For this purpose, we exposed bacterial cells in phosphate buffer (PB) to increasing concentrations of peptides and performed viable cell counts. Experimental designs similar to this are found in reports dealing with the biological characterization of peptides (see for instance). These experiments were performed on Escherichia coli, Pseudomonas aeruginosa and Bordetella bronchiseptica, three Gram-negative pathogens differing in sensitivity to APs.
(§3) The buffer used in the previous experiments was devoid of Ca^2+ and Mg^2+, two divalent cations known to contribute to outer membrane stabilization. […] However, the magnitude of the decrease varied markedly depending upon the peptide and strain.
(§4) The activity of the peptides was determined on non-growing bacteria by incubating bacterial suspensions containing number of CFU/mL identical to those used for the MIC assay (5 × 10^4 per microplate well) in low-ionic strength medium (20 mM phosphate, pH 7.0) with or without 1 mM Ca ^2+ and 1 mM Mg ^2+. After 18 hours, aliquots were plated onto MH agar to determine the presence of viable bacteria, as described above for the standard MBC assay.

Escherichia coli = experiment: as above; format: cell-based; details: 20 mM phosphate pH 7.0 (PB vs PB-CM), 18 hours, viable counts
Method: as §2, §3, §4

[5] = tested on: Bordetella bronchiseptica; experiment: as above; format: cell-based; details: 20 mM phosphate pH 7.0 (PB vs PB-CM), 18 hours, viable counts
Method: as §2, §3, §4

FWQRNISKVR-NH2 [P 54]
NPN uptake (fluorescence rise) (Pseudomonas aeruginosa [1]): slowest and less prominent NPN-uptakes | classification by the novobiocin-sensitization technique [2]: poor permeabilizers

CO[C@H]1/C=C/O[C@@]2(C)Oc3c(C)c(O)c4c(O)c(c(/C=N/N5CCN(C)CC5)c(O)c4c3C2=O)NC(=O)/C(C)=C\C=C\[C@H](C)[C@H](O)[C@@H](C)[C@@H](O)[C@@H](C)[C@H](OC(C)=O)[C@@H]1C [rifampicin]
final MIC of antibiotic [3]: 0.07 µg/mL

FWQRRIRKVRR-NH2 [P 15]
FIC index of peptide-novobiocin combination [2]: low FIC indices | synergistic activity with novobiocin, in words [2]: synergistic activity at low concentrations

FWARNIRKVR-NH2 [P 46, LF11 derived synthetic peptide, amidated C-terminus]
MBC, polypropylene vs. polystyrene plates (E. coli ATCC 25922): improved its MBC when using polypropylene instead of polystyrene

FWRNIRKVR-NH2 [P 3]
NPN uptake (fluorescence rise) (Pseudomonas aeruginosa [1]): slowest and less prominent NPN-uptakes | classification by the novobiocin-sensitization technique [2]: poor permeabilizers

FWQRNIRKVKKKI-NH2 [P 14]
FIC index of peptide-novobiocin combination [2]: best compounds as judged by their FIC indices | decrease in novobiocin MIC (MIC ratio without/with peptide) ([2]; peptide added at 6.25 μg/mL): 4 fold | times the synergistic peptide concentration (6.25 μg/mL) is lower than the peptide's own MIC ([2]; peptide at 6.25 μg/mL): at least 40 times

CC1(C)S[C@@H]2[C@H](NC(=O)[C@H](N)c3ccc(O)cc3)C(=O)N2[C@H]1C(=O)O [amoxicillin]
final MIC of antibiotic [3]: 2 µg/mL

FWQRNIRKVRRRR-NH2 [P 11, LF11 derived synthetic peptide, amidated C-terminus]
MBC, polypropylene vs. polystyrene plates (E. coli ATCC 25922): lower in polystyrene | MIC, polypropylene vs. polystyrene plates (E. coli ATCC 25922): same MIC in both materials

FWQRNIRKVKKKK-NH2 [P 13, LF11 derived synthetic peptide, amidated C-terminus]
MBC, polypropylene vs. polystyrene plates (E. coli ATCC 25922): not significantly affected by the type of material used | MIC, polypropylene vs. polystyrene plates (E. coli ATCC 25922): MIC improved in polypropylene plates

FWQRNIYKVR-NH2 [P 41]
NPN uptake (fluorescence rise) (Pseudomonas aeruginosa [1]): slowest and less prominent NPN-uptakes | classification by the novobiocin-sensitization technique [2]: poor permeabilizers

CFWQRNIRKVRC-NH2 [P 28]
NPN uptake (fluorescence rise) (Pseudomonas aeruginosa [1]): slowest and less prominent NPN-uptakes | classification by the novobiocin-sensitization technique [2]: poor permeabilizers

Polymyxin B [PMB]
MIC, polypropylene vs. polystyrene plates (E. coli ATCC 25922): higher activity (lower MIC value) when assayed in polypropylene | effect of 1 mM Ca2+ and 1 mM Mg2+ on bactericidal activity (Pseudomonas aeruginosa [4]): not significantly affected by the divalent cations | effect of 1 mM Ca2+ and 1 mM Mg2+ on bactericidal activity (Escherichia coli): not significantly affected by the divalent cations | effect of 1 mM Ca2+ and 1 mM Mg2+ on bactericidal activity [5]: not significantly affected by the divalent cations

CCn1cc(C(=O)O)c(=O)c2ccc(C)nc21 [nalidixic acid]
final MIC of antibiotic [3]: 2 µg/mL

CC[C@H]1OC(=O)[C@H](C)[C@@H](O[C@H]2C[C@@](C)(OC)[C@@H](O)[C@H](C)O2)[C@H](C)[C@@H](O[C@@H]2O[C@H](C)C[C@H](N(C)C)[C@H]2O)[C@](C)(O)C[C@@H](C)C(=O)[C@H](C)[C@@H](O)[C@]1(C)O [erythromycin]
final MIC of antibiotic [3]: 1 µg/mL

CC1(C)S[C@@H]2[C@H](NC(=O)[C@H](N)c3ccccc3)C(=O)N2[C@H]1C(=O)O [ampicillin]
final MIC of antibiotic [3]: 5 µg/mL

FWLRNIRKVR-NH2 [P 48]
FIC index of peptide-novobiocin combination [2]: low FIC indices

CC[C@H](C)[C@H](NC(=O)[C@H](CC(N)=O)NC(=O)[C@H](CCCNC(=N)N)NC(=O)[C@H](CCC(N)=O)NC(=O)[C@H](Cc1c[nH]c2ccccc12)NC(=O)[C@H](Cc1ccccc1)NC(=O)[C@@H](N)CCCNC(=N)N)C(=O)N[C@@H](CCCNC(=N)N)C(=O)N[C@@H](CCCCN)C(=O)N[C@@H](Cc1ccc(O)cc1)C(=O)N[C@@H](CCCNC(=N)N)C(=O)N[C@@H](CCCNC(=N)N)C(N)=O [P 22] (H-RFWQRNIRKYRR-NH2)
FIC of P22-antibiotic combinations ([3]; PAO1): < 0.5 | peptide MIC ([3]; PAO1): 31.25 µg/mL

CO[C@@H]1[C@@H](OC(N)=O)[C@@H](O)[C@H](Oc2ccc3c(O)c(NC(=O)c4ccc(O)c(CC=C(C)C)c4)c(=O)oc3c2C)OC1(C)C [novobiocin, reference compound]
final MIC of antibiotic [3]: 5 µg/mL | MIC ([2]; Pseudomonas aeruginosa, 415802, read-out: novobiocin MIC in the absence of peptides): ≥ 512 µg/mL

FWQRNIRKVKKK-NH2 [P 10]
FIC index of peptide-novobiocin combination [2]: best compounds as judged by their FIC indices | synergistic activity with novobiocin, in words [2]: synergistic activity at low concentrations
